# Laboratory results reported in article PMC5605456 (Biochemistry, 2017).
# Read-outs that look alike come from different tables or passages of the source.
# Tests used:
# CmlI [1] = target: T1, CmlI (Streptomyces venezuelae, UniProt F2RB83); experiment: stopped-flow at […] nm, hyperbolic fit of reciprocal relaxation times; assay type: binding
# CmlI [2] = target: T1, CmlI; experiment: as above; assay type: binding; remark: listed apart in the source
# T1 sequence (F2RB83 whole entry): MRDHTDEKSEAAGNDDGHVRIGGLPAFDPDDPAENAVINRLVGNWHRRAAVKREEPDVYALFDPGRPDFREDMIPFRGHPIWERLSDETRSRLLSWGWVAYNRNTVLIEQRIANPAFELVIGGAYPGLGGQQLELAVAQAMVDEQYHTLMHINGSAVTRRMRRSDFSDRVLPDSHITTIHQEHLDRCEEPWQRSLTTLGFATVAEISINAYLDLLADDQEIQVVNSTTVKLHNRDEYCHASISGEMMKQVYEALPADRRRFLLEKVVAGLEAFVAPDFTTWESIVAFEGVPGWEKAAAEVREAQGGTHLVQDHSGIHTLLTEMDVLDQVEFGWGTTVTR
Kd (CmlI [2]),SMILES,Kd (CmlI [1])
,O=Nc1ccc([C@@H](O)[C@@H](CO)NC(=O)C(Cl)Cl)cc1 [NO-CAM],8.6 ± 1 mM
,"Nc1ccc([C@@H](O)[C@@H](CO)NC(=O)C(Cl)Cl)cc1 [NH2-CAM, D-threo-1-(4-aminophenyl)-2-dichloroacetylamino-1,3-propanediol]",8.5 ± 1.5 mM
1.1 ± 0.05 mM,O=C(N[C@H](CO)[C@H](O)c1ccc(NO)cc1)C(Cl)Cl [NH(OH)-CAM],
